Assay results as given in patent US11986531B2, “Compounds and methods for the targeted degradation of rapidly accelerated fibrosarcoma polypeptides” (ARVINAS OPERATIONS, INC., priority 2016, dated 2024).

Test system: BRAF mutants (Class 1, Class 2 and Class 3)
Assay: targeted degradation of BRAF mutants (summary of FIGS. 4-10)
Assay type: cell-based
Conditions: BRAF mutants sensitive (Class 1) and insensitive (Class 2 and Class 3) to vemurafenib

CCCS(=O)(=O)Nc1ccc(F)c(C(=O)c2c[nH]c3ncc(-c4ccc(N5CCN(CC(=O)N[C@H](C(=O)N6C[C@H](O)C[C@H]6C(=O)NCc6ccc(-c7scnc7C)cc6)C(C)(C)C)CC5)cc4)cc23)c1F [compound 512, (2S,4R)-1-((S)-2-(2-(4-(4-(3-(2,6-difluoro-3-(propylsulfonamido)benzoyl)-1H-pyrrolo[2,3-b]pyridin-5-yl)phenyl)piperazin-1-yl)acetamido)-3,3-dimethylbutanoyl)-4-hydroxy-N-(4-(4-methylthiazol-5-yl)benzyl)pyrrolidine-2-carboxamide]
targeted degradation of BRAF mutants: induces targeted degradation of BRAF mutants sensitive (Class 1) and insensitive (Class 2 and Class 3) to vemurafenib
